According to ChEMBL document CHEMBL4229545, “Oximes short-acting CB1 receptor agonists” (Bioorg Med Chem, 2018):

Tests used:
Cannabinoid receptor 1 [1] = molecular target: T1, Cannabinoid receptor 1 (Rattus norvegicus, UniProt P20272); experiment: Displacement of [3H]CP-55,940 from rat brain Cb1 receptor
Cannabinoid receptor 1 [2] = molecular target: T1, Cannabinoid receptor 1; experiment: Agonist activity at recombinant rat Cb1 receptor expressed in HEK293 cells assessed as inhibition of forskolin-stimulated cAMP levels; format: functional, cell-based
[3] = molecular target: Cannabinoid receptor 1 (Rattus norvegicus) (UniProt P20272); experiment: Agonist activity at recombinant rat Cb1 receptor expressed in HEK293 cells assessed as inhibition of forskolin-stimulated cAMP levels relative to control; format: functional, cell-based
Chain of Cannabinoid receptor 1 (Rattus norvegicus) (P20272 whole entry): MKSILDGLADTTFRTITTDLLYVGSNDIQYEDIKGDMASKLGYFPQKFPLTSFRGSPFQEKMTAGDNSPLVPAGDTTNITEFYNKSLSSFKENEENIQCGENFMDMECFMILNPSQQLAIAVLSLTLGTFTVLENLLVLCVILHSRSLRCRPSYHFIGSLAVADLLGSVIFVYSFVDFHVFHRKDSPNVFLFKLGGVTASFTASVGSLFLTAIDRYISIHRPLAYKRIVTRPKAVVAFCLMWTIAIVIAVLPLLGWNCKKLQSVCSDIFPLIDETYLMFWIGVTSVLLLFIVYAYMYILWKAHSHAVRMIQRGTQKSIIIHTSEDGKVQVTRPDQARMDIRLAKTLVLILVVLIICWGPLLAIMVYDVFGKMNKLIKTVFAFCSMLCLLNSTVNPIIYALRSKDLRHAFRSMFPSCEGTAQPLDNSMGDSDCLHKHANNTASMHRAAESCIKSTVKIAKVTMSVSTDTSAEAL

Cannabinoid receptor 2 [4] = molecular target: T2, Cannabinoid receptor 2 (Homo sapiens, UniProt P34972); experiment: Agonist activity at recombinant human Cb2 receptor expressed in HEK293 cells assessed as inhibition of forskolin-stimulated cAMP levels relative to CP-55940; format: functional, cell-based
T2 sequence (P34972 whole entry): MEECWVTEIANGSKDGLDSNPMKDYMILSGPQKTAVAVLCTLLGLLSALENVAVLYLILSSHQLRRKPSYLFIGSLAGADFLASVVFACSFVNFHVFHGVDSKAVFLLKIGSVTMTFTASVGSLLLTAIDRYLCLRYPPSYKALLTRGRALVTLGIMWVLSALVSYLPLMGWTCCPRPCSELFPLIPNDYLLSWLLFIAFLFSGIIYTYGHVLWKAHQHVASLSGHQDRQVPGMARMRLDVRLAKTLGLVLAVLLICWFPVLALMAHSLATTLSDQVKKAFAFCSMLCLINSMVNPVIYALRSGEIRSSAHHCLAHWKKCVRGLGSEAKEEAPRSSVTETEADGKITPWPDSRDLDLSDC

Cannabinoid receptor 2 [5] = molecular target: Cannabinoid receptor 2 (Mus musculus, UniProt P47936); experiment: Displacement of [3H]CP-55,940 from recombinant mouse Cb2 receptor expressed in HEK293 cells; format: cell-based
Chain of Cannabinoid receptor 2 (Mus musculus, UniProt P47936) (P47936 whole entry): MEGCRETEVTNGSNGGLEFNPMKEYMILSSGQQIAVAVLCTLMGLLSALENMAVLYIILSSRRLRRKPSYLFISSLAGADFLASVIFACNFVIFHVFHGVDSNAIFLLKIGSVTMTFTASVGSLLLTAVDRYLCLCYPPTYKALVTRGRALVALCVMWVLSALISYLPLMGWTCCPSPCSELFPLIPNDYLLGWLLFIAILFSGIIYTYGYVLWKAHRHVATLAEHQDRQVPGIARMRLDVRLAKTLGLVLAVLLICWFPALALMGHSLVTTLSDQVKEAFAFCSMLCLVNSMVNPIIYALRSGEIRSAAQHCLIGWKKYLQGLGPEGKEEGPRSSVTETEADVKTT

Cannabinoid receptor 2 [6] = molecular target: T2, Cannabinoid receptor 2; experiment: Agonist activity at recombinant human Cb2 receptor expressed in HEK293 cells assessed as inhibition of forskolin-stimulated cAMP levels; format: functional, cell-based; conditions: read-out: EC50
Cannabinoid receptor 2 [7] = molecular target: T2, Cannabinoid receptor 2; experiment: Displacement of [3H]CP-55,940 from recombinant human Cb2 receptor expressed in HEK293 cells; format: cell-based

T1 sequence (P20272 whole entry): as the sequence (P20272 whole entry) above

Row | Structure (SMILES) | Ki (Cannabinoid receptor 1 [1]) | EC50 (Cannabinoid receptor 1 [2]; read-out: EC50) | Emax [3] | Emax (Cannabinoid receptor 2 [4]) | Ki (Cannabinoid receptor 2 [5]) | EC50 (Cannabinoid receptor 2 [6]) | Ki (Cannabinoid receptor 2 [7]) | EC50 (Cannabinoid receptor 1 [2]; hek293)
1 | CC1=CC[C@H]2[C@H](C1)c1c(O)cc(/C(C)=N/OCCCC(F)(F)F)cc1OC2(C)C | 0.3 nM | 0.4 nM | 69% | 43% | 0.5 nM | 1 nM | 3 nM | –
2 | CCCCCCC(C)(C)c1cc(O)c2c(c1)OC(C)(C)[C@H]1CC=C(C)C[C@H]21 | 0.77 nM | – | – | – | 3.2 nM | – | 9 nM | –
3 | CC1=CC[C@H]2[C@H](C1)c1c(O)cc(/C(C)=N/OCCCc3ccccc3)cc1OC2(C)C | 3 nM | 2.6 nM | 27% | 35% | 3.8 nM | 1.65 nM | 2.7 nM | –
4 | CC1=CC[C@H]2[C@H](C1)c1c(O)cc(/C(C)=N/OCCN3CCCC3)cc1OC2(C)C | 6.6 nM | – | – | – | 6.7 nM | – | 8.4 nM | –
5 | CCCCCCC(C)(C)c1ccc([C@@H]2C[C@H](O)CC[C@H]2CCCO)c(O)c1 | – | – | 70 to 85% | 70 to 85% | – | – | – | –
6 | CCCC(C)O/N=C(/C)c1cc(O)c2c(c1)OC(C)(C)[C@H]1CC=C(C)C[C@H]21 (mixture of isomers) | 0.5 nM | – | – | 260% | 1.9 nM | 11.5 nM | 6.1 nM | Not Active
7 | CC1=CC[C@H]2[C@H](C1)c1c(O)cc(/C(C)=N/OCCN3CCCCC3)cc1OC2(C)C | 5.6 nM | 12.7 nM | 31% | 147% | 4.1 nM | 65.7 nM | 2.5 nM | –
8 | CCCCCc1cc(O)c2c(c1)OC(C)(C)[C@H]1CC=C(C)C[C@H]21 | – | – | – | – | 40.4 nM | – | – | –
9 | CCCCO/N=C(\C)c1cc(O)c2c(c1)OC(C)(C)[C@H]1CC=C(C)C[C@H]21 | 3.4 nM | 0.58 nM | 51% | 116% | 1.6 nM | 9.14 nM | 16.9 nM | –
